Activity calls are given as the source filed them. The rule behind the calls is not given here.
How the values were obtained:
4T1 [1] = experiment: Anti-tumor activity against mouse 4T1 cells implanted in BALB/c mdb mouse assessed as tumor growth inhibition at 25 umol/kg, ip administered 3 times weekly measured on day 29 post cell innoculum relative to control; conditions: 4T1, ip, 696 h, read-out: TGI
[2] = Potency index, ratio of sulforaphane IC50 to compound IC50 for human LoVo/DX cell; format: functional
LoVo [3] = experiment: Cytotoxicity against human LoVo cells after 72 hrs by sulforhodamine B assay; format: functional, cell-based
[4] = Potency index, ratio of benzyl isothiocyanate IC50 to compound IC50 for human LoVo/DX cell; format: functional
LoVo [5] = experiment: Potency index, ratio of benzyl isothiocyanate IC50 to compound IC50 for human LoVo cells; format: functional
[6] = Cytotoxicity against human LoVo/DX cells after 72 hrs by sulforhodamine B assay; format: functional, cell-based
LoVo [7] = experiment: Potency index, ratio of sulforaphane IC50 to compound IC50 for human LoVo cells; format: functional
Mus musculus [8] = experiment: Toxicity in BALB/c mdb mouse implanted with mouse 4T1 cells assessed as serum PLT level at 450 umol/kg, ip administered five times weekly measured at 29 day post cell innoculum (reference value: 972 +/- 157 10^3/uL); format: organism-based; conditions: in vivo, 696 h
LoVo [9] = experiment: Cytotoxicity against human LoVo cells assessed as cell death at >15 uM after 24 hrs; format: cell-based
Mus musculus [10] = experiment: Toxicity in BALB/c mdb mouse implanted with mouse 4T1 cells assessed as serum urea level at 450 umol/kg, ip administered five times weekly measured at 29 day post cell innoculum (reference value: 3.8 +/- […]); format: organism-based; conditions: in vivo, 696 h
4T1 [11] = experiment: Anti-tumor activity against mouse 4T1 cells implanted in BALB/c mdb mouse assessed as tumor growth inhibition at 450 umol/kg, ip administered five times weekly measured on day 29 post cell innoculum relative to control; format: functional; conditions: 4T1, ip, 696 h, read-out: TGI
BALB/3T3 = experiment: Cytotoxicity against mouse BALB/3T3 cells after 72 hrs by sulforhodamine B assay; format: cell-based; conditions: BALB/3T3, 72 h
Mus musculus [12] = experiment: Hepatotoxicity in BALB/c mdb mouse implanted with mouse 4T1 cells assessed as liver weight at 450 umol/kg, ip administered five times weekly measured at 29 day post cell innoculum (reference value: 1.2 +/- 0.13 g); format: toxicity, organism-based; conditions: in vivo, 696 h
Mus musculus [13] = experiment: Toxicity in BALB/c mdb mouse implanted with mouse 4T1 cells assessed as hematocrit at 450 umol/kg, ip administered five times weekly measured at 29 day post cell innoculum (reference value: 39.9 +/- 3.7 %); format: organism-based; conditions: in vivo, 696 h
LoVo [14] = experiment: Induction of apoptosis in human LoVo cells assessed as increase in caspase3/7 activity at >15 uM using Ac-DEVD-ACC as substrate pretreated for 24 hrs followed by substrate addition measured for 2 hrs by fluorescence assay; format: functional, cell-based
LoVo [15] = experiment: Induction of apoptosis in human LoVo cells assessed as necrotic cells at 15 uM after 24 hrs by APC-Annexin-V/propidium iodide staining based flow cytometric method (reference value: 10%); format: functional
MES-SA/Dx5 = experiment: Cytotoxicity against human MESSA/DX5 cells after 72 hrs by sulforhodamine B assay; format: functional, cell-based; conditions: MES-SA/Dx5, 72 h
HL60/MX2 = experiment: Cytotoxicity against human HL60/MX2 cells after 72 hrs by sulforhodamine B assay; format: functional, cell-based; conditions: HL60/MX2, 72 h
Mus musculus [16] = experiment: Toxicity in BALB/c mdb mouse implanted with mouse 4T1 cells assessed as body weight loss at 450 umol/kg, ip administered five times weekly measured on day 11; format: organism-based; conditions: in vivo
Mus musculus [17] = experiment: Toxicity in BALB/c mdb mouse implanted with mouse 4T1 cells assessed as serum ALT level at 450 umol/kg, ip administered five times weekly measured at 29 day post cell innoculum (reference value: 23.8 +/- 2.2 U/L); format: organism-based; conditions: in vivo, 696 h
4T1 [18] = experiment: Cytotoxicity against mouse 4T1 cells after 72 hrs by sulforhodamine B assay; format: functional, cell-based; conditions: 4T1, 72 h
Mus musculus [19] = experiment: Toxicity in BALB/c mdb mouse implanted with mouse 4T1 cells assessed as serum AST level at 450 umol/kg, ip administered five times weekly measured at 29 day post cell innoculum (reference value: 136 +/- 10.3 U/L); format: organism-based; conditions: in vivo, 696 h
Mus musculus [20] = experiment: Toxicity in BALB/c mdb mouse implanted with mouse 4T1 cells assessed as body weight loss at 450 umol/kg, ip administered five times weekly measured 3 times weekly during compound dosing; format: organism-based; conditions: in vivo
LoVo/DX [21] = experiment: Induction of apoptosis in human LoVo/DX cells assessed as increase in caspase3/7 activity at >15 uM using Ac-DEVD-ACC as substrate pretreated for 24 hrs followed by substrate addition measured for 2 hrs by fluorescence assay; format: functional, cell-based
Mus musculus [22] = experiment: Toxicity in BALB/c mdb mouse implanted with mouse 4T1 cells assessed as spleen weight at 450 umol/kg, ip administered five times weekly measured at 29 day post cell innoculum (reference value: 0.603 +/- 0.133 g); format: organism-based; conditions: in vivo, 696 h
[23] = Resistance index, ratio of IC50 for human HL60/MX2 cells to IC50 for human HL60 cells; format: functional
[24] = Cytotoxicity against human LoVo/DX cells assessed as cell death at >15 uM after 24 hrs; format: cell-based
Mus musculus [25] = experiment: Toxicity in BALB/c mdb mouse implanted with mouse 4T1 cells assessed as hemoglobin level at 450 umol/kg, ip administered five times weekly measured at 29 day post cell innoculum (reference value: 15.1 +/- 1.5 g/dl); format: organism-based; conditions: in vivo, 696 h
LoVo [26] = experiment: Cell cycle arrest in human LoVo cells at 15 uM after 24 hrs by propidium iodide staining based flow cytometric method; format: functional
LoVo [27] = experiment: Induction of apoptosis in human LoVo cells assessed as increase in caspase3/7 activity at 15 uM using Ac-DEVD-ACC as substrate pretreated for 24 hrs followed by substrate addition measured for 2 hrs by fluorescence assay relative to control; format: functional
HL-60 = experiment: Cytotoxicity against human HL60 cells after 72 hrs by sulforhodamine B assay; format: functional, cell-based; conditions: HL-60, 72 h
LoVo [28] = experiment: Induction of apoptosis in human LoVo cells assessed as loss of mitochondrial membrane potential at 15 uM after 24 hrs by JC-1 staining based flow cytometric method relative to control; format: functional
A549 = experiment: Cytotoxicity against human A549 cells after 72 hrs by sulforhodamine B assay; format: functional, cell-based; conditions: A549, 72 h
Mus musculus [29] = experiment: Toxicity in BALB/c mdb mouse implanted with mouse 4T1 cells assessed as serum creatinine level at 450 umol/kg, ip administered five times weekly measured at 29 day post cell innoculum (reference value: 9.3 +/- 1.2 umol/L); format: organism-based; conditions: in vivo, 696 h
Mus musculus [30] = experiment: Toxicity in BALB/c mdb mouse implanted with mouse 4T1 cells assessed as RBC level at 450 umol/kg, ip administered five times weekly measured at 29 day post cell innoculum (reference value: 8.6 +/- 0.9 10^6/uL); format: organism-based; conditions: in vivo, 696 h
4T1 [31] = experiment: Anti-tumor activity against mouse 4T1 cells implanted in BALB/c mdb mouse assessed as lung metastasis at 450 umol/kg, ip administered five times weekly measured at 29 days post cell innoculum (reference value: 56 +/- 25); format: functional
LoVo [32] = experiment: Induction of apoptosis in human LoVo cells assessed as increase in early apoptotic cells at 15 uM after 24 hrs by APC-Annexin-V/propidium iodide staining based flow cytometric method relative to control; format: functional
Mus musculus [33] = experiment: Toxicity in BALB/c mdb mouse implanted with mouse 4T1 cells assessed as lung weight at 450 umol/kg, ip administered five times weekly measured at 29 day post cell innoculum (reference value: 0.2 +/- 0.018 g); format: organism-based; conditions: in vivo, 696 h
Mus musculus [34] = experiment: Toxicity in BALB/c mdb mouse implanted with mouse 4T1 cells assessed as body weight loss at 450 umol/kg, ip administered five times weekly starting from day 15 post cell innoculum; format: organism-based; conditions: in vivo
LoVo/DX [35] = experiment: Induction of apoptosis in human LoVo/DX cells assessed as late apoptotic cells at 15 uM after 24 hrs by APC-Annexin-V/propidium iodide staining based flow cytometric method relative to control; format: functional
Mus musculus [36] = experiment: Toxicity in BALB/c mdb mouse implanted with mouse 4T1 cells assessed as WBC level at 450 umol/kg, ip administered five times weekly measured at 29 day post cell innoculum (reference value: 212.3 +/- 82.8 10^3/uL); format: organism-based; conditions: in vivo, 696 h
Mus musculus [37] = experiment: Nephrotoxicity in BALB/c mdb mouse implanted with mouse 4T1 cells assessed as kidney weight at 450 umol/kg, ip administered five times weekly measured at 29 day post cell innoculum (reference value: 0.136 +/- 0.006 g); format: toxicity, organism-based; conditions: in vivo, 696 h
LoVo [38] = experiment: Induction of apoptosis in human LoVo cells assessed as late apoptotic cells at 15 uM after 24 hrs by APC-Annexin-V/propidium iodide staining based flow cytometric method relative to control; format: functional
[39] = Induction of apoptosis in human LoVo/DX cells assessed as increase in caspase3/7 activity at 15 uM using Ac-DEVD-ACC as substrate pretreated for 24 hrs followed by substrate addition measured for 2 hrs by fluorescence assay relative to control; format: functional
LoVo/DX [40] = experiment: Induction of apoptosis in human LoVo/DX cells assessed as loss of mitochondrial membrane potential at 15 uM after 24 hrs by JC-1 staining based flow cytometric method relative to control; format: functional
MES-SA = experiment: Cytotoxicity against human MESSA cells after 72 hrs by sulforhodamine B assay; format: functional, cell-based
LoVo/DX [41] = experiment: Cell cycle arrest in human LoVo/DX cells at 15 uM after 24 hrs by propidium iodide staining based flow cytometric method; format: functional

O=P1(N(CCCl)CCCl)NCCCO1 (stereo unspecified) [CYCLOPHOSPHAMIDE ANHYDROUS]
inhibition in vivo at 25 µmol/kg (4T1 [1]): 33.3%

CC(C)COP(=O)(CCN=C=S)OCC(C)C
Ratio IC50 [2]: 10
IC50 (LoVo [3]): 1.9 µM
Ratio IC50 [4]: 5
Ratio IC50 (LoVo [5]): 5
IC50 [6]: 2.6 µM
Ratio IC50 (LoVo [7]): 10

CCOP(=O)(CCCCCCN=C=S)OCC
Activity (Mus musculus [8]): 751 ×10³ /uL
Activity (LoVo [9]): Toxic
Activity (Mus musculus [10]): 4.6 mmol/L
inhibition in vivo at 450 µmol/kg (4T1 [11]): 7.1%
IC50 (BALB/3T3): 17.5 µM
Activity (Mus musculus [12]): 1.24 g
Activity (Mus musculus [13]): 47.7%
Activity (LoVo [14]): inactive
Activity (LoVo [15]): Active
IC50 (MES-SA/Dx5): 9.9 µM
IC50 (HL60/MX2): 4 µM
Activity (Mus musculus [16]): > 5%
Activity (Mus musculus [17]): 28.2 U/L
IC50 (4T1 [18]): 3.1 µM
Activity (Mus musculus [19]): 142.5 U/L
IC50 (LoVo [3]): 2.1 µM
Activity (Mus musculus [20]): <= 10%
Activity (LoVo/DX [21]): inactive
Activity (Mus musculus [22]): 0.493 g
Ratio IC50 [23]: 7.8
Activity [24]: Toxic
Activity (Mus musculus [25]): 17.3 g/dL
Activity (LoVo [26]): Active
fold change (FC) (LoVo [27]): 3
IC50 (HL-60): 0.5 µM
Activity (LoVo [28]): Active
IC50 (A549): 11.7 µM
Activity (Mus musculus [29]): 9.3 µmol/L
Activity (Mus musculus [30]): 10.1 ×10⁶ /uL
Activity (4T1 [31]): 62
Activity (LoVo [32]): inactive
Activity (Mus musculus [33]): 0.219 g
Activity (Mus musculus [34]): Non-Toxic
Activity (LoVo/DX [35]): inactive
Activity (Mus musculus [36]): 201.2 ×10³ /uL
Activity (Mus musculus [37]): 0.14 g
Activity (LoVo [38]): inactive
fold change (FC) [39]: 3
Ratio IC50 (LoVo [5]): 5
Activity (LoVo/DX [40]): Active
IC50 [6]: 3.9 µM
IC50 (MES-SA): 10.4 µM
Activity (LoVo/DX [41]): Active
Ratio IC50 (LoVo [7]): 10

Source: ChEMBL document CHEMBL4028815, “Novel phosphonate analogs of sulforaphane: Synthesis, in vitro and in vivo anticancer activity” (Eur J Med Chem, 2017)
